From US20200109126A1 (priority 2017, published 2020)
Entries after “also recorded” stand apart in the source; their conditions may differ.

Tests used:
μOR [1] = target: T1, μOR (Homo sapiens, UniProt P35372); assay: Receptor internalization (PathHunter GPCR internalization assay); assay type: cell-based; conditions: maximal concentration
[2] = system: Oprm1−/− and wild-type C57Bl/6J mice; assay: Hot plate in μOR knockout mice and subcategorization of affective/reflexive pain; assay type: in vivo, mouse
Method: Analgesia in μOR knockout mice and subcategorization of affective/reflexive pain: Oprm1−/− and wild-type C57Bl/6J mice (male; 8-11 weeks) were acclimated to the testing environment and thermal-plate equipment for three non-consecutive days between 11 A.M. and 1 P.M. prior to any pharmacological studies. Acclimation was achieved by individually confining mice within an enclosed semi-transparent red plastic cylinder (10 cm D×15 cm H) on a raised metal-mesh rack (61 cm H) for 30 minutes, and then exposing each mouse to the thermal-plate equipment (non-heated; floor dimensions, 16.5×16.5 cm; Bioseb), while confined within a clear plastic chamber (16 L×16 W×30H cm). Acclimation exposure to the thermal plate lasted for 30 seconds, and exposure was repeated after 30 minutes to mimic the test day conditions. […] The same experimenter ([…] ) was present throughout the entire duration of habituation and testing to exclude possible olfaction-induced alterations in sensory thresholds.
Cutaneous application of a noxious stimulus, or time spent on a hot plate apparatus can broadly elicit several distinct behavioral responses: 1. Withdrawal reflexes: rapid reflexive retraction or digit splaying of the paw, 2. […] Paw withdrawal reflexes are classically measured in studies of hypersensitivity, and involve simple spinal cord and brainstem circuits. […]

μOR [3] = target: T1, μOR; assay: biochemical; assay type: binding; design: expressed in transfected cells; host or cells: HEK293 membranes (Ki); Sf9 insect cell membranes (single-point screen); PDSP for analogs
Method: For a primary screen of selected molecules, binding to OR was assessed by measuring competition against the radioligand ^3H-diprenorphine (^3H-DPN). […] The reaction contained 40 fmol of μOR and was incubated in a buffer of 20 mM HEPES pH 7.5, 100 mM sodium chloride, and 0.1% bovine serum albumin for 1 hour at 25° C. To separate free from bound radioligand, reactions were rapidly filtered over Whatman GF/B filters with the aid of a Brandel harvester and ^3H-DPN counts were measured by liquid scintillation.

T1 sequence (P35372 whole entry): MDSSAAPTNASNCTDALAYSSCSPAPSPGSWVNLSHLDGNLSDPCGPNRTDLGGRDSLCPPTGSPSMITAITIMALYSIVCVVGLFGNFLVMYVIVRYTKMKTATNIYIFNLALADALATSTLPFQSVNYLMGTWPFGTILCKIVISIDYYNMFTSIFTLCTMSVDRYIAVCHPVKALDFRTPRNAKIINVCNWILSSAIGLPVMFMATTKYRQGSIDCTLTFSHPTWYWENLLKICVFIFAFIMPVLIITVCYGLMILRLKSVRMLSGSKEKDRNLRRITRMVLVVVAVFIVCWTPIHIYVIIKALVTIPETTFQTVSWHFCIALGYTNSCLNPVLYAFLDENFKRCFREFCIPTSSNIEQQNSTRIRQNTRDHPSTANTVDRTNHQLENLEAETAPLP

`C[C@@H](Cc1ccsc1)NC(=O)NC[C@H](Cc1ccc(O)cc1)N(C)C` [PZM21, 1-[(S)-2-(Dimethylamino)-3-(4-hydroxyphenyl)propyl]-3-((S)-1-(thiophen-3-yl)propan-2-yl)urea] was tested, and the μOR internalization (μOR [1]) was “minimal level of μOR internalization compared to DAMGO and morphine”, the “affective versus reflexive component of pain” value ([2]; hot plate 52.5° C., PZM21 20 mg/kg, 20 mg/kg) was “only modulates the affective component of pain; also recorded: solely confers analgesia to the affective component of pain” and the “analgesic response in μOR knockout mice” value ([2]; hot-plate assay) was “completely ablates the observed analgesic response”. The “optimization from initial docking hit compound 7” value (μOR [3]) was 1000 fold and the “improvement versus 12” value (μOR [3]; Ki and EC50 of (S,S)-21 against compound 12) was 40 fold.
